Molecules are shown by their SMILES. Where a name gives a salt, the structure may show the parent alone.

The subject of the first assay is eIF4E Ser209 phosphorylation in Hela cells. Nature of the assay: MNK cell-based assay (AlphaScreen SureFire, eIF4E Ser209 phosphorylation). Particulars: Homo sapiens, HeLa, 2 h, read-out: IC50 Hela. From the text:
It has been reported that Ser209 of eIF4E is solely phosphorylated by the MNK enzymes. The ability of compounds to inhibit this process in Hela cells was investigated using the AlphaScreen SureFire® assay platform from Perkin Elmer (Waltham, Mass.). eIF4E phosphorylated on Ser209 is recognized by two antibodies, the first which is fused to a streptavidin coated donor bead binds to an epitope away from Ser209, the second which is fused to a protein A conjugated acceptor bead binds to phosphorylated Ser209. The phosphorylation of eIF4E on Ser209 brings the two antibodies into close proximity and when excited by a laser a singlet oxygen is released by the donor bead which excites the acceptor bead resulting in the emission of light. This enables the monitoring of eIF4E Ser209 phosphorylation and its inhibition in a cellular context.
Hela cells were seeded into microtitre plates (30,000 cells per well) in 100 μl of culture medium and incubated at 37° C. for 24 hours. The media was then removed by aspiration and the cells resuspended in 50 μl of serum free medium containing the test compound and incubated at 37° C. for 2 hours. The culture medium was again removed by aspiration and the cells resuspended in lysis buffer (provided in Perkin Elmer SureFire® Assay Kit). After agitation at 350 rpm for 20 minutes at 22° C., 4 μl was transferred to a 384 well OptiPlate™ (Perkin Elmer, Waltham, Mass.). To each well was added 5 μl of acceptor mix; the plate was sealed and agitated gently at 22° C. for 2 hours. Then, in subdued light, 2 μl of donor mix was added to each well, the plate was sealed, wrapped in aluminum foil and agitated gently at 22° C. for 2 hours. Emission was measured using the EnVision® plate reader (Perkin Elmer, Waltham, Mass.).
Inhibition constants (IC50) were determined by plotting AlphaScreen signal versus log compound concentration and fitting with a non-linear regression algorithm using GraphPad Prism (GraphPad Software Inc.).
A general note: Alpha assays give light when donor and acceptor beads are brought close together.
Consider `O=C1CCN(C(=O)c2ccc(-c3cn4c(-c5ccc(Cl)cc5)cnc4cn3)cc2)CC1` [Example 43, 1-(4-(3-(4-chlorophenyl)imidazo[1,2-a]pyrazin-6-yl)benzoyl)piperidin-4-one], for which the IC50 (commonly the midpoint of a concentration-inhibition curve) is less than 1 µM.

Staying with this assay, now noted: Homo sapiens; eIF4E Ser209 phosphorylation, Hela cells, 2 hours; read-out: IC50 Hela.
For `CC1(C)CCN(C(=O)c2ccc(-c3cn4c(-c5ccc(C(N)=O)cc5)cnc4cn3)cc2)CC1` [Example 3, 4-(6-(4-(4,4-dimethylpiperidine-1-carbonyl)phenyl)imidazo[1,2-a]pyrazin-3-yl)benzamide], the IC50 was less than 1 µM. Same read-out and setting: the figure for `NC(=O)c1ccc(-c2cnc3cnc(-c4ccc(C(=O)N5CCC(N)CC5)cc4)cn23)cc1` [Example 4, 4-(6-(4-(4-aminopiperidine-1-carbonyl)phenyl)imidazo[1,2-a]pyrazin-3-yl) benzamide hydrochloride] is less than 1 µM. For the molecule `CC(C)(C)N1CCN(C(=O)c2ccc(-c3cn4c(-c5ccc(C(N)=O)cc5)cnc4cn3)cc2)CC1` [Example 5, 4-(6-(4-(4-tert-butylpiperazine-1-carbonyl)phenyl)imidazo [1,2-a]pyrazin-3-yl)benzamide], the IC50 is less than 1 µM. `N#Cc1ccc(-c2cnc3cnc(-c4ccc(C(=O)N5CCOCC5)cc4)cn23)cc1` [Example 7, 4-(6-(4-(morpholine-4-carbonyl)phenyl)imidazo[1,2-a]pyrazin-3-yl)benzonitrile]: the IC50 was less than 1 µM. For the molecule `CNC1CCN(C(=O)c2ccc(-c3cn4c(-c5ccc(C#N)cc5)cnc4cn3)cc2)CC1` [Example 9, 4-(6-(4-(4-(methylamino)piperidine-1-carbonyl)phenyl)imidazo[1,2-a]pyrazin-3-yl)benzonitrile], the IC50 is less than 1 µM. Still for that read-out and setting: the figure for `N#Cc1ccc(-c2cnc3cnc(-c4ccc(C(=O)N5CCN(C6CC6)CC5)cc4)cn23)cc1` [Example 14, 4-(6-(4-(4-cyclopropylpiperazine-1-carbonyl)phenyl)imidazo[1,2-a]pyrazin-3-yl)benzonitrile] is less than 1 µM; for `N#Cc1ccc(-c2cnc3cnc(-c4ccc(C(=O)N5CCC(O)CC5)cc4)cn23)cc1` [Example 15, 4-(6-(4-(4-hydroxypiperidine-1-carbonyl)phenyl)imidazo [1,2-a]pyrazin-3-yl)benzonitrile] it is less than 1 µM; for `CN1CCCN(C(=O)c2ccc(-c3cn4c(-c5ccc(C#N)cc5)cnc4cn3)cc2)CC1` [Example 17, 4-(6-(4-(4-methyl-1,4-diazepane-1-carbonyl)phenyl)imidazo [1,2-a]pyrazin-3-yl)benzonitrile] it is less than 1 µM. Take `CN(C)C1CCN(C(=O)c2ccc(-c3cn4c(-c5ccc(C#N)cc5)cnc4cn3)cc2)CC1` [Example 21, 4-(6-(4-(4-(dimethylamino)piperidine-1-carbonyl)phenyl)imidazo [1,2-a]pyrazin-3-yl)benzonitrile]: the IC50 was less than 1 µM. Still for that read-out and setting: the figure for `CC1(N)CCN(C(=O)c2ccc(-c3cn4c(-c5ccc(C#N)cc5)cnc4cn3)cc2)CC1` [Example 23, 4-(6-(4-(4-amino-4-methylpiperidine-1-carbonyl)phenyl)imidazo[1,2-a]pyrazin-3-yl)benzonitrile hydrochloride salt] is less than 1 µM. On to `N#Cc1ccc(-c2cnc3cnc(-c4ccc(C(=O)N5CCC6(CC5)COC6)cc4)cn23)cc1` [Example 24, 4-(6-(4-(2-oxa-7-azaspiro[3.5]nonane-7-carbonyl)phenyl)imidazo[1,2-a]pyrazin-3-yl)benzonitrile], for which the IC50 was less than 1 µM.

`CC(C)(C)N1CCN(C(=O)c2ccc(-c3cn4c(-c5ccc(C#N)cc5)cnc4cn3)cc2)CC1` [Example 26, 4-(6-(4-(4-tert-butylpiperazine-1-carbonyl)phenyl)imidazo[1,2-a]pyrazin-3-yl)benzonitrile]: the IC50 is less than 1 µM.

For the molecule `Cc1cc(-c2cn3c(-c4ccc(C#N)cc4)cnc3cn2)ccc1C(=O)N1CCC(C)(N)CC1` [Example 28, 4-(6-(4-(4-amino-4-methylpiperidine-1-carbonyl)-3-methylphenyl)imidazo [1,2-a]pyrazin-3-yl)benzonitrile], the IC50 was less than 1 µM. Regarding `N#Cc1ccc(-c2cnc3cnc(-c4ccc(C(=O)N5CCC(N)CC5)c(F)c4)cn23)cc1` [Example 29, 4-(6-(4-(4-aminopiperidine-1-carbonyl)-3-fluorophenyl)imidazo[1,2-a]pyrazin-3-yl)benzonitrile], the IC50 is less than 1 µM. For the molecule `CC1(N)CCN(C(=O)c2ccc(-c3cn4c(-c5ccc(C#N)cc5)cnc4cn3)cc2F)CC1` [Example 30, 4-(6-(4-(4-amino-4-methylpiperidine-1-carbonyl)-3-fluorophenyl)imidazo[1,2-a]pyrazin-3-yl)benzonitrile], the IC50 is less than 1 µM. Still for that read-out and setting: the figure for `N#Cc1ccc(-c2cnc3cnc(-c4ccc(C(=O)N5CCC(N)CC5)c(Cl)c4)cn23)cc1` [Example 31, 4-(6-(4-(4-aminopiperidine-1-carbonyl)-3-chlorophenyl)imidazo[1,2-a]pyrazin-3-yl)benzonitrile] is less than 1 µM; for `CC1(N)CCN(C(=O)c2ccc(-c3cn4c(-c5ccc(C#N)cc5)cnc4cn3)cc2Cl)CC1` [Example 32, 4-(6-(4-(4-amino-4-methylpiperidine-1-carbonyl)-3-chlorophenyl)imidazo[1,2-a]pyrazin-3-yl)benzonitrile] it is less than 1 µM. In the case of `CN1CCN(C(=O)c2ccc(-c3cn4c(-c5ccc(C#N)cc5)cnc4cn3)c(O)c2)CC1` [Example 38, 4-(6-(2-hydroxy-4-(4-methylpiperazine-1-carbonyl)phenyl)imidazo [1,2-a]pyrazin-3-yl)benzonitrile], the IC50 was less than 1 µM. On to `COc1cc(-c2cn3c(-c4ccc(C#N)cc4)cnc3cn2)ccc1C(=O)N1CCN(C)CC1` [Example 39, 4-(6-(3-methoxy-4-(4-methylpiperazine-1-carbonyl)phenyl)imidazo[1,2-a]pyrazin-3-yl)benzonitrile], for which the IC50 is less than 1 µM. Turning to `CN1CCN(C(=O)c2ccc(-c3cn4c(-c5ccc(Cl)cc5)cnc4cn3)cc2)CC1` [Example 41, (4-(3-(4-chlorophenyl)imidazo [1,2-a]pyrazin-6-yl)phenyl)(4-methylpiperazin-1-yl)methanone], the IC50 was less than 1 µM.

`NC(=O)c1ccc(-c2cn3c(-c4ccc(Cl)cc4)cnc3cn2)cc1` [Example 42, 4-(3-(4-chlorophenyl)imidazo[1,2-a]pyrazin-6-yl)benzamide]: the IC50 was less than 1 µM. In the case of `CCN1CCN(C(=O)c2ccc(-c3cn4c(-c5ccc(Cl)cc5)cnc4cn3)cc2)CC1` [Example 45, (4-(3-(4-chlorophenyl)imidazo [1,2-a]pyrazin-6-yl)phenyl)(4-ethylpiperazin-1-yl)methanone], the IC50 is less than 1 µM. As to `O=C(c1ccc(-c2cn3c(-c4ccc(Cl)cc4)cnc3cn2)cc1)N1CCNCC1` [Example 46, (4-(3-(4-chlorophenyl)imidazo[1,2-a]pyrazin-6-yl)phenyl)(piperazin-1-yl)methanone 2,2,2-trifluoroacetate salt], the IC50 was less than 1 µM. Turning to `O=C(c1ccc(-c2cn3c(-c4ccc(Cl)cc4)cnc3cn2)cc1)N1CCC(NC(=O)C(F)(F)F)CC1` [Example 48, N-(1-(4-(3-(4-chlorophenyl)imidazo [1,2-a]pyrazin-6-yl)benzoyl)piperidin-4-yl)-2,2,2-trifluoroacetamide], the IC50 is less than 1 µM. On to `N#Cc1ccc(-c2cnc3ccc(-c4ccc(C(=O)N5CCC(O)CC5)cc4)nn23)cc1` [Example 55, 4-(6-(4-(4-hydroxypiperidine-1-carbonyl)phenyl)imidazo [1,2-b]pyridazin-3-yl)benzonitrile], for which the IC50 is less than 1 µM. For the molecule `N#Cc1ccc(-c2cnc3ccc(-c4ccc(C(=O)N5CCC(N)CC5)cc4)nn23)cc1` [Example 56, 4-(6-(4-(4-aminopiperidine-1-carbonyl)phenyl)imidazo[1,2-b]pyridazin-3-yl)benzonitrile], the IC50 is less than 1 µM. As for `CC(=O)NC1CCN(C(=O)c2ccc(-c3ccc4ncc(-c5ccc(C#N)cc5)n4n3)cc2)CC1` [Example 57, N-(1-(4-(3-(4-cyanophenyl)imidazo[1,2-b]pyridazin-6-yl)benzoyl)piperidin-4-yl)acetamide], the IC50 was less than 1 µM. For the molecule `CC1(N)CCN(C(=O)c2ccc(-c3ccc4ncc(-c5ccc(C#N)cc5)n4n3)cc2)CC1` [Example 58, 4-(6-(4-(4-amino-4-methylpiperidine-1-carbonyl)phenyl)imidazo[1,2-b]pyridazin-3-yl)benzonitrile], the IC50 is less than 1 µM. On to `CC(C)N1CCN(C(=O)c2ccc(-c3ccc4ncc(-c5ccc(C#N)cc5)n4n3)cc2)CC1` [Example 59, 4-(6-(4-(4-isopropylpiperazine-1-carbonyl)phenyl)imidazo [1,2-b]pyridazin-3-yl)benzonitrile], for which the IC50 is less than 1 µM.

Turning to `CNC1CCN(C(=O)c2ccc(-c3ccc4ncc(-c5ccc(C#N)cc5)n4n3)cc2)CC1` [Example 60, 4-(6-(4-(4-(methylamino)piperidine-1-carbonyl)phenyl)imidazo[1,2-b]pyridazin-3-yl)benzonitrile], the IC50 was less than 1 µM.

(Values after patent US20190211020A1 (Agency for Science, Technology and Research, priority 2012, published 2019).)
